In patent publication US11726087B2, “Methods, compositions, and kits for detection of aspergillosis” (priority 2013, dated 2023):
“Also recorded” adds a separate entry of the source. Positions of bridges follow the written chain, without caps; N, C: chain ends. Non-standard residues stand in square brackets, D forms with d. Residues, ends and D or L forms follow the SMILES beside them. No end group written: not given here. *: point of attachment. 5FAM = O=C1OC2(c3ccc(O)cc3Oc3cc(O)ccc32)c2ccc(C(=O)*)cc21; DABCYL = 4-(dimethylaminoazo)benzene-4-carboxy; Sta = CC(C)C[C@H](N)[C@@H](O)CC(=O)O; Isovaleryl = CC(C)CC(=O)*

What was measured:
Format in all cases: biochemical, A. fumigatus
[1] = target: T1, native Asp f2 (Aspergillus fumigatus, UniProt P79017); details: for effect of protease inhibitors on proteolytic activity of native Asp f2: 50 μM inhibitor, FluHSA2 substrate
T1 construct: beads were incubated with native or recombinant Asp f2; endogenous in cells; host or cells: Aspergillus fumigatus (preparation of the native protein not described for this assay)
T1 sequence (P79017 32-310): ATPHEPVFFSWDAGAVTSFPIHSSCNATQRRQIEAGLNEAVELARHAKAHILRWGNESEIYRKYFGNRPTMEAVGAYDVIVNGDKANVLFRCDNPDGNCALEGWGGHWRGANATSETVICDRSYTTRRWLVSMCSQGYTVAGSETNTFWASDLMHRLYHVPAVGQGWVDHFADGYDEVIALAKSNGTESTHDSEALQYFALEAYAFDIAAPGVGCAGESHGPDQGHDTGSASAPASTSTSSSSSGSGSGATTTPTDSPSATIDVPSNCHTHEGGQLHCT
Experimental: (§1) A novel bead-based assay was developed for detecting Asp f2 proteolytic activity. […] Cyanogen bromide (CNBr)-activated sepharose beads were swelled in ice-cold HCl (1 mM). Beads (1.0 g) were incubated with 3.0 mg of 5D7A1 in Coupling Buffer (NaHCO3, 0.1 M and NaCl, 0.5 M, pH 8.3-8.5) and rotated for two hours at 22° C. or for 16 hours at 4° C. Beads were blocked with 0.1 M ethanolamine, pH 8.0, then washed with buffers of alternating pH (first with Coupling Buffer, pH 8.5, then with a low pH buffer (sodium acetate, 0.1 M, NaCl, 0.5 M, pH 4.0)). These dual washes were repeated four times. Lastly, beads were resuspended in ammonium bicarbonate (100 mM), lyophilized and stored at 4° C.
(§2) FluHSA2 comprises the peptide of SEQ ID NO:5 conjugated to 5-Fam at the alpha-amino group of the threonine at the N-terminus of the peptide and to DABCYL at the epsilon amino group of the lysine side chain at the C-terminus of the peptide. Upon excitation, the DABCYL suppresses the fluorescence emission of the 5-Fam labeled peptides when the peptides are not cleaved and the fluorescent label and DABCYL remain close together. However, when the peptide is cleaved by Asp f2, the fluorescent label and DABCYL are separated and the fluorescent label emits light energy upon excitation. For each replicate (including negative controls), 100 μL of the antibody coupled bead suspension was transferred into 0.5 mL reaction buffer (FluHSA2 (FIG. 4-5; SEQ ID NO: 5), […] sodium phosphate, 25 mM, NaCl, 100 mM, pH 7.2. Tubes were incubated in the dark for two hours at 37° C. or for 16 hours at 22° C. on a rotary shaker at 250 rpm. Fluorescence was measured at Excitation (Ex) 485 nm/Emission (Em) 535 nm in a black 96-well micro titer plate.
(§3) Diethylpyrocarbonate (DEPC) derivatization of histidines results in the chemical modification of histidines in proteins and is used to study the importance of histidyl residues in enzymes. Using the materials and methods described in Example 1, anti-Asp f2 (5D7A1)-bound beads were incubated with native or recombinant Asp f2 in the presence or absence of DEPC (30 μM) and incubated for one hour at 22° C. prior to reaction with FluHSA2. Samples were then incubated with 10 μM of FluHSA2 for 16 hours at 22° C. and fluorescence was measured as described above. Cleavage of FluHSA2 was detected in the presence or absence of DEPC to test the proteolytic activity of native and recombinant Asp f2.
Anti-Asp f2 (5D7A1)-bound beads were incubated with native or recombinant Asp f2 in the presence or absence of 0.5 mM zinc chloride or 50 μM of various inhibitors. Samples were incubated with FluHSA2 and fluorescence was measured as described above. […] Various Asp f2 histidine residues, including those located in the ^186HRLYH motif, were mutated to alanine (FIG. 12; H186A and H190A are located in the HRLYH motif), and mutant or wild-type Asp f2 was incubated with anti-Asp f2 (5D7A1)-bound beads as described above, followed by incubation with FluHSA2.

[2] = target: T2, recombinant Asp f2 (Aspergillus fumigatus, UniProt P79017); details: for effect of protease inhibitors on proteolytic activity of recombinant Asp f2: 50 μM inhibitor, FluHSA2 substrate
T2 construct: region fused to Asp f2 residues 32-310 (codon optimized for expression in E. coli); Trx-SMT3 N-terminal linker (thioredoxin, His6 tags, SMT3) (N, cleaved yes); made in house; host or cells: Escherichia coli
T2 sequence (P79017 32-310): as above
Experimental: as §1, §2
The fusion protein comprised an N-terminal linker (Trx-SMT3 N-terminal linker) region fused to Asp f2 residues 32-310 (codon optimized for expression in E. coli; FIG. 14) via a Ubiquitin-like-specific protease 1 (ULP1) cleavage site located between SMT3 and Asp f2. The Trx-SMT3 N-terminal linker contained the following from N- to C-terminus: thioredoxin (Trx)-glycine-serine-linker-His6-tag-linkers-another His6-tag-SMT3. Trx was added to improve solubility of the construct and a yeast SUMO (Smt3) was added to help enhance expression and promote solubility of Asp f2. Following purification using a His6-tag specific nickel-NTA column, Asp f2 was activated by cleaving the Trx-SMT3 N-terminal linker off using UPL1.
as §3
Anti-Asp f2 (5D7A1)-bound beads were incubated with native or recombinant Asp f2 in the presence or absence of 0.5 mM zinc chloride or 50 μM of various inhibitors. Samples were incubated with FluHSA2 and fluorescence was measured as described above.

[3] = target: T1, native Asp f2; assay: Cleavage of fluorogenic substrates by bead-bound native Asp f2
Experimental: Cleavage specificity of the novel FluHSA peptide was tested using Asp f2 and another Aspergillus protein, Asp f3. CNBr-activated sepharose beads were prepared as described in Example 1 and incubated with either the anti-Asp f2 monoclonal antibody 5D7A1 or an anti-Asp f3 rabbit polyclonal antibody. Anti-Asp f2-immobilized beads were incubated with native Asp f2 and anti-Asp f3-immobilized beads were incubated with native Asp f3. Samples were incubated with FluHSA2 (10 μM) for 16 hours at 22° C. Fluorescence was measured at Ex 485 nm/Em 535 nm in a black 96-well micro titer plate as described above.
The cleavage products of FluHSA2 after reaction with native Asp f2 were investigated by mass spectrometric analysis (MALDI spectra) (FIG. 5). Cleavage by Asp f2 occurred in the C-terminal linear tail section of the peptide resulting in at least 5 cleavage products (FIG. 5).
Peptides other than FluHSA2 were tested for cleavage by Asp f2.

[4] = DEPC 30 μM, one hour at 22° C. before FluHSA2 10 μM, 16 hours at 22° C.

| Compound | effect of protease inhibitors on proteolytic activity of native Asp f2 [1] | effect of protease inhibitors on proteolytic activity of recombinant Asp f2 [2] | further results |
| --- | --- | --- | --- |
| c1cnc2c(c1)ccc1cccnc12 [1-10-phenanthroline] | suppressed | suppressed | – |
| CCOC(=O)OC(=O)OCC [DEPC, Diethylpyrocarbonate] | – | – | proteolytic activity of native Asp f2 (cleavage of FluHSA2) in the presence of DEPC [1, 4]: inhibited; also recorded: inactive in the presence of DEPC; proteolytic activity of recombinant Asp f2 (cleavage of FluHSA2) in the presence of DEPC [2, 4]: inhibited; also recorded: inactive in the presence of DEPC |
| O=C(O)CN(CCN(CC(=O)O)CC(=O)O)CC(=O)O [EDTA, ethylenediaminetetraacetic acid] | suppressed | suppressed | – |
| NC(=O)CI [IAA, iodoacetamide] | did not inhibit | did not inhibit | – |
| O=S(=O)(F)Cc1ccccc1 [PMSF, phenylmethanesulfonylfluoride] | did not inhibit | did not inhibit | – |
| c1ccc(CN(CCN(Cc2ccccn2)Cc2ccccn2)Cc2ccccn2)nc1 [TPEN, N,N,N′,N′-tetrakis (2-pyridylmethyl) ethylenediamine] | suppressed | suppressed | – |
| CC(C)CC(=O)N[C@H](C(=O)N[C@H](C(=O)N[C@@H](CC(C)C)[C@@H](O)CC(=O)N[C@@H](C)C(=O)N[C@@H](CC(C)C)[C@@H](O)CC(=O)O)C(C)C)C(C)C [pepstatin A] (Isovaleryl-VV[Sta]A[Sta]-OH) | did not inhibit | did not inhibit | – |
| [5-Fam]-TKCATESAVNRRPCFSALK-[DABCYL] (5FAM-TKCATESAVNRRPCFSALK(DABCYL); disulfide 3-14 (inferred)) [FluHSA2] | – | – | number of cleavage products after reaction with native Asp f2 (MALDI) [3]: at least 5; specificity of cleavage by Asp f2 compared with Asp f3 ([3]; FluHSA2 10 μM, 16 hours at 22° C.): high specificity for cleavage by Asp f2; number of cleavage sites on reaction with native Asp f2 (MALDI) ([3]; sites near the C-terminus): four |
| aprotinin | did not inhibit | did not inhibit | – |
| collagen | – | – | degradation of fluorogenic protein substrate by native Asp f2 ([3]; 15 μg/mL, Asp f2 enriched on 5D7A1 beads): capable of degrading |
| soybean trypsin inhibitor [SBTI] | did not inhibit | did not inhibit | – |
